Consider five compounds from ChEMBL document CHEMBL4011592, “Synthesis and evaluation of 7-substituted-5,6-dihydrobenzo[c]acridine derivatives as new c-KIT promoter G-quadruplex binding ligands” (Eur J Med Chem, 2017).

A short description of data set [1]: Selectivity ratio of Kd for biotinylated duplex DNA (unknown origin) to Kd for biotinylated c-KIT1 G-quadruplex DNA (unknown origin).
Data set [2] deals with K562. The data set is described as follows: Induction of apoptosis in human K562 cells assessed as increase in late apoptotic cells after 48 hrs by flow cytometric method. Format: functional, cell-based. Background: In flow cytometry, cells or beads pass a laser one at a time.
A short description of data set [3]: Binding affinity to c-KIT1 G-quadruplex DNA (unknown origin) assessed as 1:1 binding stoichiometry between compound and G-quadruplex DNA 10 uM by ESI-MS spectra analysis.
Data set [4] has as its system K562. The data set is described as follows: Induction of apoptosis in human K562 cells assessed as late apoptotic cells at 9 uM after 48 hrs by flow cytometric method (reference value: 0.1 %). The format is functional.
Data set [5] deals with K562. The data set is described as follows: Induction of apoptosis in human K562 cells assessed as late apoptotic cells at 1 uM after 48 hrs by flow cytometric method (reference value: 0.1 %). Format: functional.
Data set [6] is filed under the species Homo sapiens. As to the kind of experiment: Binding affinity to c-KIT G-quadruplex DNA in human K562 cells assessed as reduction in c-KIT mRNA level after 48 hrs by RT-PCR analysis. Format: cell-based.
Data set [7] deals with K562. The data set is described as follows: Cytotoxicity against human K562 cells after 48 hrs by MTT assay. The format is functional, cell-based. The following applies: K562, 48 h. For orientation: Tetrazolium dyes change colour on reduction, which living cells bring about.
The nature of data set [8]: Binding affinity to c-KIT1 G-quadruplex DNA (unknown origin) assessed as ability to promote c-KIT G-rich sequences to form parallel G-quadruplex at 25 uM in absence of KCl measured after 10 mins by CD-spectroscopic analysis.
In another data set the test system is A549. The data set is described as follows: Cytotoxicity against human A549 cells after 48 hrs by MTT assay. Format: functional, cell-based. The settings on record: A549, 48 h.
Data set [9] deals with K562. As to the kind of experiment: Induction of apoptosis in human K562 cells assessed as late apoptotic cells at 6 uM after 48 hrs by flow cytometric method (reference value: 0.1 %). Format: functional.
Data set [10] is described as follows: Binding affinity to 5'-FAM/3'-TAMARA labelled c-KIT2 G-quadruplex DNA (unknown origin) assessed as change in melting temperature at 1 uM by FRET assay.
A short description of data set [11]: Binding affinity to biotinylated duplex DNA (unknown origin) by SPR assay. Background: Surface plasmon resonance follows binding to a sensor surface in real time, without labels.
The test system of data set [12] is K562. The data set is described as follows: Effect on total c-KIT protein level in human K562 cells at 9 uM after 48 hrs by Western blot analysis. The format is ADME, cell-based. The settings on record: k562, 48 h.
In data set [13] the test system is K562. As to the kind of experiment: Cytotoxicity against human K562 cells expressing c-KIT measured up to 3 days by Annexin V-FITC/propidium iodide staining based assay. Format: functional, cell-based.
The subject of another data set is HeLa. As to the kind of experiment: Cytotoxicity against human HeLa cells after 48 hrs by MTT assay. The format is functional, cell-based.
Data set [14] in a line: Binding affinity to 5'-FAM/3'-TAMARA labelled c-KIT1 G-quadruplex DNA (unknown origin) assessed as change in melting temperature at 1 uM by FRET assay.
The nature of data set [15]: Binding affinity to c-KIT1 G-quadruplex DNA (unknown origin) measured after 10 mins by UV-vis spectroscopic method.
For data set [16], the species on record is Homo sapiens. The data set is described as follows: Binding affinity to c-KIT G-quadruplex DNA in human K562 cells assessed as reduction in c-KIT protein level after 48 hrs by Western blot analysis. The format is cell-based.
Data set [17] deals with K562. The data set is described as follows: Induction of apoptosis in human K562 cells assessed as increase in Bad expression after 48 hrs by Western blot analysis. Format: functional, cell-based.
Data set [18] is filed under the species Homo sapiens. The data set is described as follows: Binding affinity to c-KIT G-quadruplex DNA in human K562 cells assessed as reduction in c-KIT mRNA level at 9 uM after 48 hrs by RT-PCR analysis relative to control. The format is cell-based. Further details: scale not given: the % may be the effect or the level left.
The nature of data set [19]: Binding affinity to c-KIT1 G-quadruplex DNA (unknown origin) assessed as isosbestic point at 10 uM measured after 10 mins by UV-vis spectroscopic method.
Data set [20] can be described thus: Binding affinity to c-KIT1 G-quadruplex DNA (unknown origin) assessed as red shift at 10 uM measured after 10 mins by UV-vis spectroscopic method.
Data set [21] can be described thus: Binding affinity to 5'-FAM labelled c-KIT1 G-quadruplex DNA (unknown origin) by microscale thermophoresis.
The nature of data set [22]: Binding affinity to F10T duplex DNA (unknown origin) assessed as change in melting temperature at 1 uM by FRET assay.
Data set [23] concerns K562. The data set is described as follows: Induction of apoptosis in human K562 cells assessed as increase in Bax expression after 48 hrs by Western blot analysis. Format: functional, cell-based.
The nature of data set [24]: Binding affinity to F10T duplex DNA (unknown origin) assessed as change in melting temperature at 2 uM by FRET assay.
The nature of data set [25]: Binding affinity to c-KIT1 G-quadruplex DNA (unknown origin) assessed as 1:1 binding stoichiometry between compound and G-quadruplex DNA by Job's plot method.
The subject of data set [26] is K562. As to the kind of experiment: Induction of apoptosis in human K562 cells assessed as upregulation of cleaved caspase-3 at 1 to 9 uM after 48 hrs by Western blot analysis. The format is functional, cell-based.
Data set [27] concerns K562. The data set is described as follows: Induction of apoptosis in human K562 cells assessed as late apoptotic cells at 3 uM after 48 hrs by flow cytometric method (reference value: 0.1 %). Format: functional.
A short description of data set [28]: Binding affinity to c-KIT1 G-quadruplex DNA (unknown origin) assessed as hyperchromicity at 10 uM measured after 10 mins by UV-vis spectroscopic method.
The nature of data set [29]: Binding affinity to c-KIT2 G-quadruplex DNA (unknown origin) assessed as maintainance of parallel c-KIT G-quadruplex conformation at 5 uM in presence of KCl measured after 10 mins by CD-spectroscopic analysis.
The nature of data set [30]: Binding affinity to 5'-FAM/3'-TAMARA labelled c-KIT1 G-quadruplex DNA (unknown origin) assessed as change in melting temperature at 2 uM in presence ds26 DNA by FRET assay.
The test system of data set [31] is K562. As to the kind of experiment: Induction of apoptosis in human K562 cells assessed as decrease in Bcl-2 expression at 1 to 9 uM after 48 hrs by Western blot analysis. Format: functional, cell-based.
The test system of another data set is BJ. The data set is described as follows: Cytotoxicity against human BJ cells after 48 hrs by MTT assay. The format is cell-based.
Data set [32] can be described thus: Binding affinity to c-KIT1 G-quadruplex DNA (unknown origin) assessed as hyperchromicity at 5 uM measured after 10 mins by fluorescence spectroscopic method.
Data set [33] is described as follows: Binding affinity to c-KIT2 G-quadruplex DNA (unknown origin) assessed as ability to promote c-KIT G-rich sequences to form parallel G-quadruplex at 25 uM in absence of KCl measured after 10 mins by CD-spectroscopic analysis.
Data set [34] can be described thus: Binding affinity to 5'-FAM/3'-TAMARA labelled c-KIT1 G-quadruplex DNA (unknown origin) assessed as change in melting temperature at 2 uM by FRET assay.
Data set [35] can be described thus: Binding affinity to 5'-FAM labelled duplex DNA (unknown origin) by microscale thermophoresis.
Data set [36] is described as follows: Binding affinity to biotinylated c-KIT1 G-quadruplex DNA (unknown origin) by SPR assay.
In data set [37] the test system is K562. The data set is described as follows: Induction of apoptosis in human K562 cells assessed as increase in cleaved PARP level at 1 to 9 uM after 48 hrs by Western blot analysis. Format: functional, cell-based.
Data set [38] in a line: Binding affinity to c-KIT1 G-quadruplex DNA (unknown origin) assessed as maintainance of parallel c-KIT G-quadruplex conformation at 5 uM in presence of KCl measured after 10 mins by CD-spectroscopic analysis.
Data set [39] is filed under the species Homo sapiens. The data set is described as follows: Binding affinity to c-KIT G-quadruplex DNA in human K562 cells assessed as reduction in c-KIT mRNA level at 0.5 uM after 48 hrs by RT-PCR analysis. The format is cell-based.

Calls of active or inactive are those of the source. The calls are words filed in the database; no cut-off is given here. Bounds are passed on as bounds.

As for `CCN(CC)CCCNc1c2c(nc3ccccc13)-c1cc(OC)c(OC)cc1CC2`, the Selectivity ratio in data set [1] is over 4.3. Also, the Activity entry in the data set on K562 [2] is “Dose-dependent effect”; in the data set with K562 [4] it was 64.8%; with K562 [5] it was 1.8%; in the data set listed under Homo sapiens [6] it was “Dose-dependent effect”; with K562 [9], 8.4%; in the data set with K562 [12], “Non-Toxic”. In addition, the Activity result with K562 [13] is “Dose-dependent effect”; in the data set listed under Homo sapiens [16] it was “Dose-dependent effect”; in the data set with K562 [17], “Dose-dependent effect”; in the data set filed under Homo sapiens [18], 52%; in the data set on K562 [23] it was “Dose-dependent effect”; in the data set on K562 [27] it was 3.6%. The outcome (in [3]; in data set [8]; in [19]; in [20]; in data set [25]; in the data set with K562 [26]) was Active. The result (in data set [28]; in data set [29]; in data set [30]; in the data set with K562 [31]; in data set [32]; in data set [33]) was Active. Moreover, the outcome (with K562 [37]; in data set [38]) was Active. Moreover, the IC50 (commonly the midpoint of a concentration-inhibition curve) with K562 [7] was found to be 9.2 µM; with A549 it was 5.7 µM; in the data set on HeLa, 3.2 µM; in the data set with BJ it was 29.4 µM. The shift in melting temperature (ΔTm) – broadly, the change in melting temperature against a reference sample – turned out to be 5.4 °C in [10]; 11.9 °C in data set [14]; 0.6 °C in data set [22]; 1.2 °C in data set [24]; 15.9 °C in data set [34]. Moreover, the Kd (commonly the concentration at which binding is half-saturated) in [11] is over 20 µM; in data set [15], 3.3 µM; in data set [21] it was 1.5 µM; in [35], 10.5 µM; in data set [36], 4.7 µM.

Take `CCN(CC)CCCNc1c2c([n+](C)c3ccccc13)-c1cc(OC)c(OC)cc1CC2`: the Selectivity ratio in data set [1] was over 2.7. For the same compound, the result in data set [3], in data set [8], in [19], in [20], in data set [25] and in [28] was Active. Besides, the result in data set [29], in [30], in data set [32], in data set [33] and in [38] was Active. Moreover, the concentration for half-maximal inhibition (IC50) in the data set with K562 [7] is 37.1 µM; with A549 it was over 50 µM; with HeLa, over 50 µM; in the data set with BJ, over 50 µM. The ΔTm turned out to be 3.6 °C in data set [10]; 7.5 °C in data set [14]; 0.9 °C in data set [22]; 0.4 °C in data set [24]; 10.8 °C in data set [34]. Besides, the results for the Kd in [11], in data set [15] and in data set [36] were over 20 µM, 9.1 µM and 7.4 µM, respectively.

As to `Cc1ccc(NC(=O)c2ccc(CN3CCN(C)CC3)cc2)cc1Nc1nccc(-c2cccnc2)n1`, in the data set listed under Homo sapiens [39], the result was inactive.

Take `COc1cc2c(cc1OC)-c1nc3ccccc3c(NCCCN3CCCCC3)c1CC2`: in data set [1], the Selectivity ratio is over 5.1. Besides, the IC50 in the data set on K562 [7] worked out at 3.9 µM; in the data set with A549 it was 4.4 µM; in the data set with HeLa it was 9.9 µM; in the data set with BJ, 12.3 µM. Besides, the ΔTm in [10] was determined as 8.1 °C; in data set [14] it was 11.6 °C; in [22], 1.4 °C; in data set [24], 2.1 °C; in data set [34] it was 20.2 °C. Also, the Kd was over 20 µM in data set [11] and 3.9 µM in data set [36]. Besides, the outcome in data set [30] was Active.

In the case of `COc1cc2c(cc1OC)-c1c(c(NCCCN(C)C)c3ccccc3[n+]1C)CC2`, the Selectivity ratio in [1] is over 3.4. For the same compound, the IC50 with K562 [7], in the data set with A549, in the data set with HeLa and in the data set with BJ was over 50 µM throughout. Moreover, the ΔTm was 3.7 °C in [10]; 8.6 °C in data set [14]; 0.8 °C in data set [22]; 0.3 °C in data set [24]; 10.7 °C in data set [34]. The Kd is over 20 µM in [11] and 5.8 µM in [36]. Moreover, the result in [30] was Active.
